Measurements: patent US20240197772A1, “COMPOSITIONS COMPRISING ONE OR MORE HMO'S WITH A CORE OF LacNAc-Lac” (FrieslandCampina Nederland B.V., priority 2020, published 2024)

Columns and labels:
CD36 = assay: PCR gene expression of CD36 in PBMCs incubated with single HMOs; assay type: cell-based, human; details: PBMCs of 3 donors, 0.5 mg/ml HMO, 5 h, average, control set as 1, GAPDH reference gene
Description: (§1) The effect of single HMOs on the expression of genes relevant to cholesterol metabolism and atherogenesis was tested using Peripheral Blood Mononuclear Cells (PBMCs) from 3 donors and incubated those cells with 0.5 g/l of single HMOs. The level of expression was determined using PCR.
(§2) Peripheral blood mononuclear cells (PBMC's) were isolated from a buffy coat using Sepmate tubes. The cells were diluted to a concentration of 1*10^7 cells per ml. The PBMC's were seeded in 6 wells plates and treated with 0.5 g/l of each HMO in PBMC culturing medium for 5 h prior to RNA isolation. Each HMO was mixed with 100 ug/ml final concentration of Polymyxin B to ensure neutralization of possible endotoxin contamination of HMOs, while equal amounts of Polymyxin B were used as a control.
(§3) 500 ng RNA, isolated from PBMCs, was translated into cDNA, using the quantitect reverse transcription kit (Qiagen). Primersets for the regulated genes (shown in the table below), were ordered at Qiagen (Quantitect primer assays). From each condition (PBMCs of 3 donors in control situation and after exposure towards HMOs (5 hrs)) cDNA (100×, 10× for genes which were low expressed) was amplified using the different primersets.
(§4) GAPDH (Glyceraldehyde-3-Phosphate Dehydrogenase) was used as a reference gene to quantify changes of gene expression between the control and the HMO-treated cells.
(§5) • GAPDH: Hs_GAPDH_vb.1_SG QuantiTect Primer Assay • IL19: Hs_IL19_1_SG QuantiTect Primer Assay • CD36: Hs_CD36_3_SG QuantiTect Primer Assay • GPR43/FFAR2: Hs_FFAR2_2_SG QuantiTect Primer Assay • ABCA1: Hs_ABCA1_1_SG QuantiTect Primer Assay
(§6) 19 commercially available HMO's that are present in human milk were tested. All gene expression values were calibrated to the Polymyxin B control of each respective donor (set arbitrary as 1). Average values for each gene compared to the Polymyxin B control are shown below (values above 1.5 fold or below 0.5 fold were considered physiologically relevant).

GPR43/FFAR2 = assay: PCR gene expression of GPR43/FFAR2 in PBMCs incubated with single HMOs; assay type: cell-based, human; details: PBMCs of 3 donors, 0.5 mg/ml HMO, 5 h, average, control set as 1, GAPDH reference gene
Description: as §1, §2, §3, §4, §5, §6

IL19 = assay: PCR gene expression of IL19 in PBMCs incubated with single HMOs; assay type: cell-based, human; details: PBMCs of 3 donors, 0.5 mg/ml HMO, 5 h, average, control set as 1, GAPDH reference gene
Description: as §1, §2, §3, §4, §5, §6

CD14+ CD36+ PBMC's = assay: Cholesterol uptake (Dil oxLDL) by FACS in PBMCs; assay type: cell-based; details: 0.5 mg/ml, 4 hrs pre-incubation then 10 ug/ml Dil oxLDL 1 hour; gated on CD14+ CD36+ cells; FIG. 1
ABCA1 = assay: PCR gene expression of ABCA1 in PBMCs incubated with single HMOs; assay type: cell-based, human; details: PBMCs of 3 donors, 0.5 mg/ml HMO, 5 h, average, control set as 1, GAPDH reference gene
Description: as §1, §2, §3, §4, §5, §6
2′FL was included too as it was expected that the most abundant HMO in human milk would show changes in any of these systems. […]

Primary human adipocytes = assay: Adipocyte glucose uptake assay (3H-2-deoxyglucose); assay type: cell-based; details: 2 hours incubation; compared with vehicle control DMSO and insulin 100 nM positive control; LPS 2 ng/mL
Text: • 1. Subcutaneous preadipocytes from Zen-Bio Inc were thawed and plated into appropriate experimental plate format. • 2. Upon thawing cells, culturing followed differentiation schedule below: • Day Treatment • 1 Plate cells in PM-1 • 2 Differentiate cells using DM-2 • 9 Feed cells Maintenance medium AM-1 • 16 Assay cells for lipid accumulation, lipolysis, glucose uptake or RNAseq. • 1. Primary human adipocytes were differentiated in 96-well isoplates • 2. At 14 days post differentiation, the cells were treated with glucose uptake starvation media (Zen-Bio Inc) overnight. • 3. The next morning, the cells were washed with assay buffer and the cells were treated with compounds in glucose assay buffer containing ^3H-2-deoxyglucose cocktail and the cells were incubated at 37° C., 5% CO2 and allowed to incubate for 2 hours. • 4. After 2 hours, the cells were washed with PBS, lysed, and mixed with Optiphase “Supermix” scintillation fluid (Zen-Bio Inc). The Counts Per Minute (CPM) of each well measured. • Vehicle control: DMSO (control) • Zen Bio Insulin positive control: 100 nM (insulin) • Control for possible endotoxin contamination of pHMOs: […]

Compound | CD36 gene expression relative to Polymyxin B control (CD36) | FFAR2 gene expression relative to Polymyxin B control (GPR43/FFAR2) | IL19 gene expression relative to Polymyxin B control (IL19) | cholesterol level in the cell, % of original value (MFI vs no glycan control with Dil oxLDL) (CD14+ CD36+ PBMC's) | ABCA1 gene expression relative to Polymyxin B control (ABCA1) | glucose uptake (CPM of 3H-2-deoxyglucose) (Primary human adipocytes) | CD36 gene expression relative to Polymyxin B control (CD36; listed as LNF-III)
CC(=O)N[C@H]1[C@H](O[C@H]2[C@@H](O)[C@@H](CO)O[C@@H](O[C@H]3[C@H](O)[C@@H](O)C(O)O[C@@H]3CO)[C@@H]2O)O[C@H](CO)[C@@H](O[C@@H]2O[C@H](CO[C@]3(C(=O)O)C[C@H](O)[C@@H](NC(C)=O)[C@H]([C@H](O)[C@H](O)CO)O3)[C@H](O)[C@H](O)[C@H]2O)[C@@H]1O (stereo partly drawn) [LSTc] | 0.90 fold | 1.02 fold | 1.25 fold | – | – | – | –
CC(=O)N[C@H]1[C@H](O[C@H]2[C@@H](O)[C@@H](CO)O[C@@H](O[C@H]3[C@H](O)[C@@H](O)C(O)O[C@@H]3CO)[C@@H]2O)O[C@H](CO)[C@@H](O[C@@H]2O[C@H](CO)[C@H](O)[C@H](O)[C@H]2O)[C@@H]1O (mixture of isomers) [LNnT, lacto-N-neotetraose] | 0.93 fold | 0.93 fold | 0.93 fold | – | – | – | –
LNFP-I | 0.85 fold | 0.86 fold | 1.89 fold | – | – | – | –
C[C@@H]1O[C@@H](O[C@H]2[C@H](O[C@H]3[C@H](O)[C@@H](O)C(O)O[C@@H]3CO)O[C@H](CO)[C@H](O)[C@@H]2O)[C@@H](O)[C@H](O)[C@@H]1O (stereo partly drawn) [2′FL, 2′-fucosyllactose] | 0.67 fold | 0.72 fold | – | about 91% | 1.09 fold | not significantly different from the vehicle control | –
CC(=O)N[C@H]1[C@H](O[C@H]2[C@@H](O)[C@@H](CO)O[C@@H](O[C@@H]([C@H](O)[C@@H](O)C=O)[C@H](O)CO)[C@@H]2O)O[C@H](CO[C@]2(C(=O)O)C[C@H](O)[C@@H](NC(C)=O)[C@H]([C@H](O)[C@H](O)CO)O2)[C@@H](O)[C@@H]1O[C@@H]1O[C@H](CO)[C@H](O)[C@H](O[C@]2(C(=O)O)C[C@H](O)[C@@H](NC(C)=O)[C@H]([C@H](O)[C@H](O)CO)O2)[C@H]1O [DSLNT, disialyllacto-N-tetraose] | – | – | – | – | 2.02 fold | – | –
CC(=O)N[C@H]1[C@H](O[C@H]2[C@@H](O)[C@@H](CO)O[C@@H](O[C@@H]([C@H](O)[C@@H](O)C=O)[C@H](O)CO)[C@@H]2O)O[C@H](CO[C@]2(C(=O)O)C[C@H](O)[C@@H](NC(C)=O)[C@H]([C@H](O)[C@H](O)CO)O2)[C@@H](O)[C@@H]1O[C@@H]1O[C@H](CO)[C@H](O)[C@H](O)[C@H]1O [LSTb, sialyllacto-N-tetraose b] | 0.75 fold | – | 1.31 fold | – | – | – | –
CC(=O)N[C@H]1[C@H](O[C@H]2[C@@H](O)[C@@H](CO)O[C@@H](O[C@H]3[C@H](O)[C@@H](O)C(O)O[C@@H]3CO)[C@@H]2O)O[C@H](CO)[C@@H](O)[C@@H]1O[C@@H]1O[C@H](CO)[C@H](O)[C@H](O)[C@H]1O (stereo partly drawn) [LNT, lacto-N-tetraose] | 0.93 fold | 0.93 fold | 0.93 fold | – | – | – | –
Lacto-N-fucopentaose III [LNFP-III] | 0.08 fold | – | – | – | – | – | reduce
CC(=O)N[C@H]1[C@H]([C@H](O)[C@H](O)CO)O[C@@](O[C@H]2[C@@H](O)[C@@H](CO)O[C@@H](O[C@H]3[C@H](O[C@@H]4O[C@@H](C)[C@@H](O)[C@@H](O)[C@@H]4O)[C@@H](O)C(O)O[C@@H]3CO)[C@@H]2O)(C(=O)O)C[C@@H]1O (stereo partly drawn) [3S3FL] | 0.90 fold | 1.03 fold | 0.94 fold | – | – | – | –
CC(=O)N[C@H]1[C@H]([C@H](O)[C@H](O)CO)O[C@@](OC[C@H]2O[C@@H](O[C@H]3[C@H](O)[C@@H](O)[C@H](O)O[C@@H]3CO)[C@H](O)[C@@H](O)[C@H]2O)(C(=O)O)C[C@@H]1O [6′SL, 6′-Sialyllactose] | 0.93 fold | 1.83 fold | 1.05 fold | – | – | – | –
lactodifucoheaxose II [LNDFH-II] | – | – | – | – | 2.16 fold | – | –
Lipopolysaccharide [LPS] | – | – | – | – | – | did not upregulate glucose uptake at all | –
CC(=O)N[C@H]1[C@H]([C@H](O)[C@H](O)CO)O[C@@](O[C@H]2[C@@H](O)[C@@H](CO)O[C@@H](O[C@H]3[C@H](O)[C@@H](O)C(O)O[C@@H]3CO)[C@@H]2O)(C(=O)O)C[C@@H]1O (stereo partly drawn) [3′SL, 3′-Sialyllactose] | 0.87 fold | 1.25 fold | 1.24 fold | – | – | – | –
3-Fucosyllactose [3FL] | 0.98 fold | 1.18 fold | 1.06 fold | – | – | – | –
C[C@@H]1O[C@@H](O[C@H]2[C@H](O[C@H]3[C@H](O[C@@H]4O[C@@H](C)[C@@H](O)[C@@H](O)[C@@H]4O)[C@@H](O)C(O)O[C@@H]3CO)O[C@H](CO)[C@H](O)[C@@H]2O)[C@@H](O)[C@H](O)[C@@H]1O (stereo partly drawn) [LDFT] | 1.00 fold | 1.64 fold | 0.75 fold | – | – | – | –
